Measurements as given in ChEMBL document CHEMBL1143774, “Parallel strategies for the preparation and selection of liver-targeted glucocorticoid receptor antagonists” (Bioorg Med Chem Lett, 2007).

Assays:
Rattus norvegicus [1] = test: Inhibition of prednisilone-induced glycogen depostion in Sprague-Dawley rats at 100 mg/kg, po; assay type: functional
Rattus norvegicus [2] = test: Inhibition of prednisilone-induced lymphopenia in Sprague-Dawley rats at 100 mg/kg, po; assay type: functional
Rattus norvegicus [3] = test: Inhibition of prednisilone-induced TAT level in Sprague-Dawley rats at 100 mg/kg, po; assay type: functional
Glucocorticoid receptor [4] = biological target: T1, Glucocorticoid receptor (Homo sapiens, UniProt P04150); test: Inhibition of human GR expressed in hGRAF cells; assay type: cell-based
T1 sequence (P04150 whole entry): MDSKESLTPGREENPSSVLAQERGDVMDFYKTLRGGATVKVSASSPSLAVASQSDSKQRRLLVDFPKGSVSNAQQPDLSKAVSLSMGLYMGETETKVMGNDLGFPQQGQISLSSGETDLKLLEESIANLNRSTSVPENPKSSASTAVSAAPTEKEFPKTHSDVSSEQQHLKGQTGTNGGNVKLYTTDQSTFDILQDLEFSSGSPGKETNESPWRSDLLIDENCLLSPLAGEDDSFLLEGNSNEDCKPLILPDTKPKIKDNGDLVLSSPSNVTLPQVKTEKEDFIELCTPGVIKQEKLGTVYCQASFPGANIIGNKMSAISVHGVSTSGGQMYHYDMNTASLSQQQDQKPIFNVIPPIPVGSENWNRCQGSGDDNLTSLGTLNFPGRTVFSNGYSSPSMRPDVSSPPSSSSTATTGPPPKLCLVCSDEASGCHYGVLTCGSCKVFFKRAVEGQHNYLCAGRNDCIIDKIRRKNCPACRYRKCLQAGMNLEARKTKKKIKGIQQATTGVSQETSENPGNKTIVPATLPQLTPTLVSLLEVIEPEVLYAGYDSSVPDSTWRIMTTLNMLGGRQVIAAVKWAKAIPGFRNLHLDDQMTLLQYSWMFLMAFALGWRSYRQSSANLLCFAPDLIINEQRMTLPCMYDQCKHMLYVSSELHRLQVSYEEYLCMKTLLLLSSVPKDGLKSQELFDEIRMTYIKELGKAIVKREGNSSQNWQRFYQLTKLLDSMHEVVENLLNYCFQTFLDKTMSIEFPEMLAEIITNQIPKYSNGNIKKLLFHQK

Glucocorticoid receptor [5] = biological target: T1, Glucocorticoid receptor; test: Inhibition of human GR transcriptional activation by HepTAT cells; assay type: cell-based
Glucocorticoid receptor [6] = biological target: T1, Glucocorticoid receptor; test: Displacement of radiolabeled Dexamethasone from human GR
[7] = Drug level in Sprague-Dawley rat liver after 1 hr; assay type: ADME, tissue-based; details: read-out: Activity
[8] = Ratio of drug level in liver to plasma in Sprague-Dawley rat at 1 hr; assay type: ADME, tissue-based; details: liver and plasma

SMILES | Ki (Glucocorticoid receptor [4]) [nM] | Ki (Glucocorticoid receptor [5]) [nM] | Ki (Glucocorticoid receptor [6]) [nM] | concentration at 1 h [7] [ng/g] | Kp at 1 h [8] | inhibition in vivo at 100 mg/kg (Rattus norvegicus [1]) [%] | inhibition in vivo at 100 mg/kg (Rattus norvegicus [2]) [%] | inhibition in vivo at 100 mg/kg (Rattus norvegicus [3]) [%]
CC#C[C@]1(O)CC[C@H]2[C@@H]3CCC4=CC(=O)CCC4=C3[C@@H](c3ccc(N(C)Cc4ccc(C(=O)NCc5cccc(C(=O)O)c5)cc4)cc3)C[C@@]21C |  |  |  |  |  | -12 | -10 | 3
CC#C[C@]1(O)CC[C@H]2[C@@H]3CCC4=CC(=O)CCC4=C3[C@@H](c3ccc(N(C)Cc4ccc(C(=O)N[C@H](CCSC)C(=O)O)cc4OC)cc3)C[C@@]21C |  |  |  |  |  | 8 | -4 | -27
CC#C[C@]1(O)CC[C@H]2[C@@H]3CCC4=CC(=O)CCC4=C3[C@@H](c3ccc(N(C)CC(=O)Nc4ccc(C(=O)O)cc4)cc3)C[C@@]21C | 91.8 | 75 | 2.7 |  |  |  |  | 
CC#C[C@]1(O)CC[C@H]2[C@@H]3CCC4=CC(=O)CCC4=C3[C@@H](c3ccc(N(C)CC(=O)N(C)Cc4cccc(C(=O)O)c4)cc3)C[C@@]21C |  |  |  |  |  | 9 | -10 | 20
CC#C[C@]1(O)CC[C@H]2[C@@H]3CCC4=CC(=O)CCC4=C3[C@@H](c3ccc(N(C)CC(=O)Nc4nc(CC(=O)O)cs4)cc3)C[C@@]21C | 765 | 31 | 35 |  |  |  |  | 
CC#C[C@]1(O)CC[C@H]2[C@@H]3CCC4=CC(=O)CCC4=C3[C@@H](c3ccc(N(C)CC(=O)N(Cc4ccccc4)Cc4ccc(C(=O)O)cc4)cc3)C[C@@]21C | 39 | 57 | 1.1 |  |  |  |  | 
CC#C[C@]1(O)CC[C@H]2[C@@H]3CCC4=CC(=O)CCC4=C3[C@@H](c3ccc(N(C)C)cc3)C[C@@]21C [MIFEPRISTONE] |  |  |  |  |  | 77 | 104 | 101

Now from value to molecule, other results behind:

Ki (Glucocorticoid receptor [4]) [nM] | Ki (Glucocorticoid receptor [5]) [nM] | Ki (Glucocorticoid receptor [6]) [nM] | concentration at 1 h [7] [ng/g] | Kp at 1 h [8] | SMILES | inhibition in vivo at 100 mg/kg (Rattus norvegicus [1]) [%] | inhibition in vivo at 100 mg/kg (Rattus norvegicus [2]) [%] | inhibition in vivo at 100 mg/kg (Rattus norvegicus [3]) [%]
33 | 33 | 0.9 |  |  | CC#C[C@]1(O)CC[C@H]2[C@@H]3CCC4=CC(=O)CCC4=C3[C@@H](c3ccc(N(C)CC(=O)N(Cc4ccc(C(=O)O)cc4)c4ccc(Br)cc4)cc3)C[C@@]21C |  |  | 
 |  |  | 37000 | 17 | CC#C[C@]1(O)CC[C@H]2[C@@H]3CCC4=CC(=O)CCC4=C3[C@@H](c3ccc(N(C)Cc4ccc(C(C)C(=O)O)cc4)cc3)C[C@@]21C (stereo partly drawn) |  |  | 
21 | 64 | 0.5 |  |  | CC#C[C@]1(O)CC[C@H]2[C@@H]3CCC4=CC(=O)CCC4=C3[C@@H](c3ccc(N(C)CC(=O)N(C)c4ccc(C(=O)O)cc4)cc3)C[C@@]21C |  |  | 
15 | 127 | 4.8 |  |  | CC#C[C@]1(O)CC[C@H]2[C@@H]3CCC4=CC(=O)CCC4=C3[C@@H](c3ccc(N(C)CCCCC(=O)O)cc3)C[C@@]21C |  |  | 
90 | 36 | 0.6 |  |  | CC#C[C@]1(O)CC[C@H]2[C@@H]3CCC4=CC(=O)CCC4=C3[C@@H](c3ccc(N(C)Cc4ccc(C(=O)NCC(=O)O)cc4)cc3)C[C@@]21C | 47 | 40 | 48
12 | 52 | 1.8 |  |  | CC#C[C@]1(O)CC[C@H]2[C@@H]3CCC4=CC(=O)CCC4=C3[C@@H](c3ccc(N(C)Cc4ccc(C(=O)O)cc4)cc3)C[C@@]21C | 94 | 123 | 106
30 | 112 | 3 |  |  | CC#C[C@]1(O)CC[C@H]2[C@@H]3CCC4=CC(=O)CCC4=C3[C@@H](c3ccc(N(C)Cc4cccc(C(=O)O)c4)cc3)C[C@@]21C |  |  | 
4.4 | 32 | 1.8 |  |  | CC#C[C@]1(O)CC[C@H]2[C@@H]3CCC4=CC(=O)CCC4=C3[C@@H](c3ccc(N(C)Cc4ccc(CC(=O)O)cc4)cc3)C[C@@]21C | 101 | 117 | 95
